Measured values: ChEMBL document CHEMBL2062514 (J Med Chem, 2012)

Assays:
Adenosine receptor A1 [1] = target: T1, Adenosine receptor A1 (Mus musculus, UniProt Q60612); test: Displacement of [125I]I-AB-MECA from mouse adenosine A1 receptor expressed in HEK293 cells after 60 mins by liquid scintillation counting
T1 sequence (Q60612 whole entry): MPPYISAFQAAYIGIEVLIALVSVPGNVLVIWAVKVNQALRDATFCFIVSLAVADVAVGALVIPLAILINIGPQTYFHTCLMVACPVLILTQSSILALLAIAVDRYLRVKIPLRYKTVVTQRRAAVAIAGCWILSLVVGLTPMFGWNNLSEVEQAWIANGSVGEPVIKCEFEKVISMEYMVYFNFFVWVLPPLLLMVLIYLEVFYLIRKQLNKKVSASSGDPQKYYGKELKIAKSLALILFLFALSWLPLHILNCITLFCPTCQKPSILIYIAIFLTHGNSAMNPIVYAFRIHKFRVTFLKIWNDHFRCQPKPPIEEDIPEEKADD

Adenosine receptor A3 [2] = target: T2, Adenosine receptor A3 (Mus musculus, UniProt Q61618); test: Displacement of [125I]I-AB-MECA from mouse adenosine A3 receptor expressed in HEK293 cells after 60 mins by liquid scintillation counting
T2 sequence (Q61618 whole entry): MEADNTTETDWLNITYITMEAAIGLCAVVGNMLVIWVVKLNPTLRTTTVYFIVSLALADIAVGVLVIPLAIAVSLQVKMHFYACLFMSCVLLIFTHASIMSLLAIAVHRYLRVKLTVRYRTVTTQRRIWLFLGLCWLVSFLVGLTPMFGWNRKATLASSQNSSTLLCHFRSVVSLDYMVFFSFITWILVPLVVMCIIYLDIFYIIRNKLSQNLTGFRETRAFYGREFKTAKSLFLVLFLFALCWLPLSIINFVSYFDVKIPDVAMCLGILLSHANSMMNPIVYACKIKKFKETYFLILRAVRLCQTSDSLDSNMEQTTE

[3] = target: Adenosine receptor A2a (Mus musculus) (UniProt Q60613); test: Displacement of [3H]CGS21680 from mouse adenosine A2A receptor expressed in HEK293 cells at 10 uM after 60 mins by liquid scintillation counting
[4] = target: T3, Adenosine receptor A3 (Homo sapiens) (UniProt P0DMS8); test: Agonist activity at human recombinant adenosine A3 receptor expressed in CHO cells assessed as inhibition of forskolin-stimulated cAMP production at 10 uM incubated for 30 mins prior to forskolin-stimulation measured after 15 mins by enzyme immunoassay relative to NECA; type: functional, cell-based
T3 sequence (whole entry): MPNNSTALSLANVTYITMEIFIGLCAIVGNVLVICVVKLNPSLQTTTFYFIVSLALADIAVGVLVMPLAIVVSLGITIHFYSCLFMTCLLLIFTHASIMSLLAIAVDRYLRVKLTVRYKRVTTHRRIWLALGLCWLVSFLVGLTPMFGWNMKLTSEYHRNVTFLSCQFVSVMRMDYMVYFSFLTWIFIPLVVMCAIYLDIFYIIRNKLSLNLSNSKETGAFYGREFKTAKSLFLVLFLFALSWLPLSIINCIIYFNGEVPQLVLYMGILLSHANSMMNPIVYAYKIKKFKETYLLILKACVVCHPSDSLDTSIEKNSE

Adenosine receptor A2a = Adenosine receptor A2a (Homo sapiens, UniProt P29274); test: Displacement of [3H]CGS21680 from human recombinant adenosine A2A receptor expressed in HEK293 cells at 10 uM after 60 mins by liquid scintillation counting; type: cell-based
Adenosine receptor A1 [5] = target: T4, Adenosine receptor A1 (Homo sapiens, UniProt P30542); test: Displacement of [3H]R-PIA from human recombinant adenosine A1 receptor expressed in CHO cells after 60 mins by liquid scintillation counting; type: cell-based
T4 sequence (P30542 whole entry): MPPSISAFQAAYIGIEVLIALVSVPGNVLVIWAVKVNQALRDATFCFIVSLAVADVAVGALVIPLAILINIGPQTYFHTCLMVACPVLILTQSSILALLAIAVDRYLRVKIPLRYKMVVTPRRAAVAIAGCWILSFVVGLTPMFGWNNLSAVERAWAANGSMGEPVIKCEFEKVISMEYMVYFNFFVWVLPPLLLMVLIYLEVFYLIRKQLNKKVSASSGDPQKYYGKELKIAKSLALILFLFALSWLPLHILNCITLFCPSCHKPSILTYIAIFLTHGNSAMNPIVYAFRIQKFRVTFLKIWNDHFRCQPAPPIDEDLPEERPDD

[6] = target: T5, Adenosine receptor A1 (Homo sapiens) (UniProt P30542); test: Displacement of [3H]R-PIA from human recombinant adenosine A1 receptor expressed in CHO cells at 10 uM after 60 mins by liquid scintillation counting; type: cell-based
T5 sequence (whole entry): T4 sequence (P30542 whole entry)

Adenosine receptor A3 [7] = target: T6, Adenosine receptor A3 (Homo sapiens, UniProt P0DMS8); test: Displacement of [3H]I-AB-MECA from human recombinant adenosine A3 receptor expressed in CHO cells after 60 mins by gamma counting; type: cell-based
T6 sequence (P0DMS8 whole entry): T3 sequence (whole entry)

Sequence of Adenosine receptor A2a (P29274 whole entry): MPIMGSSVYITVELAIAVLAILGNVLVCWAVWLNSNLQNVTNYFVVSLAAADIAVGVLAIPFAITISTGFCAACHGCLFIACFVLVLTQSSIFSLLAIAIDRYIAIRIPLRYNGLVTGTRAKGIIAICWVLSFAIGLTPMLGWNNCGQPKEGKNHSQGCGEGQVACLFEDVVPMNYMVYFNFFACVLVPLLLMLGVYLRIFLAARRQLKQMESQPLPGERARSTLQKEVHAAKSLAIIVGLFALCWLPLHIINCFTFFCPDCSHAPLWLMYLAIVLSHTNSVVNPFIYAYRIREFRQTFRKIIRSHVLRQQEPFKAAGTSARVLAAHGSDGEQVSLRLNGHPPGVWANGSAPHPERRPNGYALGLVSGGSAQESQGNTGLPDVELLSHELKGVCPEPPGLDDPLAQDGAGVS
Sequence of Adenosine receptor A2a (Mus musculus) (Q60613 whole entry): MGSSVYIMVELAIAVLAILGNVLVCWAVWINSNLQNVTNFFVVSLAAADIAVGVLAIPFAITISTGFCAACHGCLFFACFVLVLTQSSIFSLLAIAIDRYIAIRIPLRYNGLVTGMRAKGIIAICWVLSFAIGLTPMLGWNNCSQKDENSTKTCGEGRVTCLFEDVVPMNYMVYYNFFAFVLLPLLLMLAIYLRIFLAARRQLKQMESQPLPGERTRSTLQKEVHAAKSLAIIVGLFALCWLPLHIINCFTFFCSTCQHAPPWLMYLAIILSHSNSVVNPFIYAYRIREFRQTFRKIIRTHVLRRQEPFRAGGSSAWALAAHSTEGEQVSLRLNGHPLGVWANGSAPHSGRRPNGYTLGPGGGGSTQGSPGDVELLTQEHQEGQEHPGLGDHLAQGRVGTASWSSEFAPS

SMILES	Ki (Adenosine receptor A1 [1]) [nM]	Ki (Adenosine receptor A3 [2]) [nM]	inhibition [3] [%]	Efficacy [4] [%]	inhibition (Adenosine receptor A2a) [%]	Ki (Adenosine receptor A1 [5]) [nM]	inhibition [6] [%]	Ki (Adenosine receptor A3 [7]) [nM]
CNC(=O)[C@@]12C[C@@H]1[C@@H](n1cnc3c(NCc4cccc(Cl)c4)nc(C#Cc4ccc(N)cc4)nc31)[C@H](O)[C@@H]2O	261	0.82	5	76.6	44	1520		
CNC(=O)[C@@]12C[C@@H]1[C@@H](n1cnc3c(NCc4cccc(Cl)c4)nc(C#Cc4cc5cccc6ccc7cccc4c7c65)nc31)[C@H](O)[C@@H]2O				97.1	4		11	660
